Measured values published in ChEMBL document CHEMBL1201862, “PubChem BioAssay data set” (2004).
Activity calls are given as the source filed them.

Tests used:
[1] = A549 cell cytotoxicity, dose response, cytotoxicity control, plate reader, cherry-pick, antagonist series (AID 743412); assay type: functional, cell-based
[2] = toxicity toward HepG2 liver cells – cell-based, plate reader, cherry-pick, antagonist series, cytotoxicity control, dose response (AID 743416); assay type: functional
[3] = blockers of bursicon-stimulated LGR2 cAMP reporter – cell-based, HEK293, CRE-luciferase reporter, cherry pick, set 2, dose response (AID 743343); assay type: functional;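 further: transfected cells were stimulated with diluted bursicon conditioned medium after compound addition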
[4] = blockade of melanocortin 4 receptor signaling – cell-based, plate reader, cherry pick, counter-screen for LGR2 antagonist project, dose response (AID 743444); assay type: functional;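 further: transfected HEK 293 cells stimulated with alpha-MSH peptide; potency of inhibitors of the alpha-MSH evoked signal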
[5] = viability loss in HEK293 cells – cell-based, plate reader, cherry-picked samples, cytotoxicity control, dose response (AID 743446); assay type: functional
[6] = target: Paired box protein Pax-8 (Homo sapiens, UniProt Q06710); assay: PAX8 transcriptional activity inhibition in RMG-I – RMG-I cells, luciferase, cherry-pick, dose response (AID 687027); assay type: functional, cell-based;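 further: luciferase reporter driven by Pax8 target thyroperoxidase promoter measured by SteadyGlo luminescence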
Chain of Paired box protein Pax-8 (Q06710 whole entry): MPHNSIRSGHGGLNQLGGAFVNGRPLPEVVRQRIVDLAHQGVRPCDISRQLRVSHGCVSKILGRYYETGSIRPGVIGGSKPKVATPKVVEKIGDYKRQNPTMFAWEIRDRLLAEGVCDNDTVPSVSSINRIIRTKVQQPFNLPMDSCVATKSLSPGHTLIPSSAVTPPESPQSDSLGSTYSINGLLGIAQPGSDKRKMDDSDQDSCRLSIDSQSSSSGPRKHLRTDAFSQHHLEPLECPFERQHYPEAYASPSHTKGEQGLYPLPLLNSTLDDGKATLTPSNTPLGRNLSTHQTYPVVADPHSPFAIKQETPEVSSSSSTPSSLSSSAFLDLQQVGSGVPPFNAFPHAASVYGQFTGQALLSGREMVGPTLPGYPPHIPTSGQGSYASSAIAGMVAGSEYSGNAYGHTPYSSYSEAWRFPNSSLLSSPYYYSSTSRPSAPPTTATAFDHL

[7] = OVCAR-3 cell viability loss – plate reader, dry powder samples, PAX8 inhibitor project, dose response (AID 743044); assay type: functional, cell-based
[8] = general cell-killing toxicity readout – plate reader, dry powder samples, cytotoxicity control for PAX8 inhibitor project, dose response (AID 743021); assay type: functional, cell-based
[9] = toxicity toward immortalized ovarian surface epithelium – cell-based, plate reader, dry powder samples, cytotoxicity control for PAX8 inhibitor project, dose response (AID 743045); assay type: functional
[10] = A2780 cell killing – plate reader, dry powder samples, cytotoxicity control, dose response (AID 743046); assay type: functional, cell-based
[11] = IGROV1 cell killing – plate reader, dry powder samples, PAX8 inhibitor project, dose response (AID 743043); assay type: functional, cell-based; conditions: IGROV-1
[12] = OVCAR8 cell viability loss – plate reader, dry powder samples, PAX8 project, dose response (AID 743197); assay type: functional, cell-based; conditions: OVCAR-8
[13] = P. falciparum Dd2 growth inhibitors, dose response, SYBR Green, cherry-picked samples (AID 1159567); assay type: functional, cell-based
[14] = toxicity to human hepatoma HepG2 cells – cell-based, cherry-picked samples, cytotoxicity control, dose response (AID 1159577); assay type: functional
[15] = cytotoxicity in MITF-independent A375 cells – cell-based, CellTiter-Glo luminescence, dry powder, set 4, counter-screen for MITF inhibitor project, dose response (AID 624364); assay type: functional; conditions: A-375;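 further: A375 melanoma cells are MITF independent so this is a counter screen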
[16] = viability loss in MITF-independent A375 cells – cell-based, CellTiter-Glo luminescence, dry powder, set 2, counter-screen for MITF inhibitor project, dose response (AID 624489); assay type: functional; conditions: A-375;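 further: actives are compounds lowering A375 viability meaning general cytotoxicity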
[17] = target: 1-phosphatidylinositol 4,5-bisphosphate phosphodiesterase gamma-1 (Homo sapiens, UniProt P19174); assay: Counterscreen for inhibitors of phospholipase C isozymes (PLC-B3): Fluorescence-based biochemical high throughput dose response assay to identify inhibitors of phospholipase C isozymes (PLC-gamma1).
Chain of 1-phosphatidylinositol 4,5-bisphosphate phosphodiesterase gamma-1 (P19174 whole entry): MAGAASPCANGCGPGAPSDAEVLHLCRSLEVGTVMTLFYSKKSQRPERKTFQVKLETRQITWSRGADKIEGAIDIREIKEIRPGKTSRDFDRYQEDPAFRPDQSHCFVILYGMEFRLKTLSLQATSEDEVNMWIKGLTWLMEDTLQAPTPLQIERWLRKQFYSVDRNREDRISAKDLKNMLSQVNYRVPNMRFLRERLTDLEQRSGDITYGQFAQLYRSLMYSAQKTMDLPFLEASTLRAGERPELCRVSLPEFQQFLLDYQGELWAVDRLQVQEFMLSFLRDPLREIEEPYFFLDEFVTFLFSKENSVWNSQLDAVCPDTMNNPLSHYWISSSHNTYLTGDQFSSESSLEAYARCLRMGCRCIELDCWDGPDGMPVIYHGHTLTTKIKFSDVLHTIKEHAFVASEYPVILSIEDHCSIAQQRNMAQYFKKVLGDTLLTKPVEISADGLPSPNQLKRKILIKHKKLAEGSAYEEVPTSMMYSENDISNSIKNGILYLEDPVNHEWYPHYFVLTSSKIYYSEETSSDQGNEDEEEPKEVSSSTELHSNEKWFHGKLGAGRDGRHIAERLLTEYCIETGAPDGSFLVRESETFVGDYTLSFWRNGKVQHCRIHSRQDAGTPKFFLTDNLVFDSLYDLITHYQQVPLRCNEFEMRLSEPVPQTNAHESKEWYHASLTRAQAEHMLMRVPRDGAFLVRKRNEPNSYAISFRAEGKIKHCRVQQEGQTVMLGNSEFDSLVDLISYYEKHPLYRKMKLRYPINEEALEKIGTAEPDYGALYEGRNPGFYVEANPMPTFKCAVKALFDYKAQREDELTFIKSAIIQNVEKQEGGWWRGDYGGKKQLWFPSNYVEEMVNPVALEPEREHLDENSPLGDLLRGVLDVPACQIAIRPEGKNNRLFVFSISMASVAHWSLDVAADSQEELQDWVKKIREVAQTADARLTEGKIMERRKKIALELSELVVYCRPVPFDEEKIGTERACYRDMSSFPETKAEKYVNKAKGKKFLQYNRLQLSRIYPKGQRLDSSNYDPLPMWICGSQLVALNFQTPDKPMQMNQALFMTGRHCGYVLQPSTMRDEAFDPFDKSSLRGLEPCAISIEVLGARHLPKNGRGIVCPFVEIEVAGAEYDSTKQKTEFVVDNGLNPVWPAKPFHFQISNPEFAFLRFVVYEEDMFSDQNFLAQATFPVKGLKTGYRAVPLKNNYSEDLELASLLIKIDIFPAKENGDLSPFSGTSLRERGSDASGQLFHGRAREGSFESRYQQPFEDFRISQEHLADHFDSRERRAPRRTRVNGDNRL

[18] = target: 1-phosphatidylinositol 4,5-bisphosphate phosphodiesterase beta-3 (Homo sapiens, UniProt Q01970); assay: Fluorescence-based biochemical high throughput dose response assay to identify inhibitors of phospholipase C isozymes (PLC-B3).
Chain of 1-phosphatidylinositol 4,5-bisphosphate phosphodiesterase beta-3 (Q01970 whole entry): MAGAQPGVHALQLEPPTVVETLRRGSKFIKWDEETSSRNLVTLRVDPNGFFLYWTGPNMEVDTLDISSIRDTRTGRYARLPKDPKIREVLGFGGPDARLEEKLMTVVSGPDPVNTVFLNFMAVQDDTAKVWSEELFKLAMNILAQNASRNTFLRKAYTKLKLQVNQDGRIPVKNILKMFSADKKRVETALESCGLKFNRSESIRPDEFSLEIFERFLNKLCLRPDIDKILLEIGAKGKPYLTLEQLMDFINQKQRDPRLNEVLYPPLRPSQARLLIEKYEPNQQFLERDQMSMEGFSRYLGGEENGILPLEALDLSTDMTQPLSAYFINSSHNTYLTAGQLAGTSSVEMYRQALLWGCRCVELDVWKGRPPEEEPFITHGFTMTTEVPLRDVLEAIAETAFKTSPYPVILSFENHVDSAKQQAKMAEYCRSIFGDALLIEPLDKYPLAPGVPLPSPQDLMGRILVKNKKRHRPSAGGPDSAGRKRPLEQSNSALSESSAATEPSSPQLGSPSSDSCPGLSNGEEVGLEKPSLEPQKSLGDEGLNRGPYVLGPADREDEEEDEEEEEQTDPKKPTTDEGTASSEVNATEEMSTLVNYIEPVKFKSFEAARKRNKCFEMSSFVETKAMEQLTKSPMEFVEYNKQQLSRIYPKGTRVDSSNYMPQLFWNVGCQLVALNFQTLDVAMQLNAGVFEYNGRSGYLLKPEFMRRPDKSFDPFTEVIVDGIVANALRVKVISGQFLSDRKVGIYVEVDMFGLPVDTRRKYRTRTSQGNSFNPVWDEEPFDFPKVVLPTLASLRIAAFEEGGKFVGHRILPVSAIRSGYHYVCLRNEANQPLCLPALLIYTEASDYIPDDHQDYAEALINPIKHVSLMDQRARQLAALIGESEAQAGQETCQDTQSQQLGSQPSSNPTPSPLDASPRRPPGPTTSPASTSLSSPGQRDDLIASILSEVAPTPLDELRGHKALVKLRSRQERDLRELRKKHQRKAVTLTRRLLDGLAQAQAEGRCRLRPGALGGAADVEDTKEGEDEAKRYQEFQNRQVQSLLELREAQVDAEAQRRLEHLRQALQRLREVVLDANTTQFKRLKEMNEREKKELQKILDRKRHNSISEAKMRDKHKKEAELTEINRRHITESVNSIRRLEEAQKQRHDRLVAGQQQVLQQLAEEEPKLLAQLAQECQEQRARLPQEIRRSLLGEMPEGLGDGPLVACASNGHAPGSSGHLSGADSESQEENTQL

[19] = potency of ADAM10 substrate cleavage blockers – biochemical, QFRET, dose response (AID 743254);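 further: ADAM10 enzyme with the DM2 quenched FRET peptide as substrate; EDANS fluorescence gain as the protease cuts the substrate; inhibitor potency against ADAM10 proteolytic activity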
[20] = target: Disintegrin and metalloproteinase domain-containing protein 17 (Homo sapiens, UniProt P78536); assay: inhibition of ADAM17 substrate cleavage – biochemical, quenched FRET substrate, counter-screen for ADAM10 exosite inhibitor project, dose response (AID 743253)
Chain of Disintegrin and metalloproteinase domain-containing protein 17 (P78536 whole entry, the tested form may be a part): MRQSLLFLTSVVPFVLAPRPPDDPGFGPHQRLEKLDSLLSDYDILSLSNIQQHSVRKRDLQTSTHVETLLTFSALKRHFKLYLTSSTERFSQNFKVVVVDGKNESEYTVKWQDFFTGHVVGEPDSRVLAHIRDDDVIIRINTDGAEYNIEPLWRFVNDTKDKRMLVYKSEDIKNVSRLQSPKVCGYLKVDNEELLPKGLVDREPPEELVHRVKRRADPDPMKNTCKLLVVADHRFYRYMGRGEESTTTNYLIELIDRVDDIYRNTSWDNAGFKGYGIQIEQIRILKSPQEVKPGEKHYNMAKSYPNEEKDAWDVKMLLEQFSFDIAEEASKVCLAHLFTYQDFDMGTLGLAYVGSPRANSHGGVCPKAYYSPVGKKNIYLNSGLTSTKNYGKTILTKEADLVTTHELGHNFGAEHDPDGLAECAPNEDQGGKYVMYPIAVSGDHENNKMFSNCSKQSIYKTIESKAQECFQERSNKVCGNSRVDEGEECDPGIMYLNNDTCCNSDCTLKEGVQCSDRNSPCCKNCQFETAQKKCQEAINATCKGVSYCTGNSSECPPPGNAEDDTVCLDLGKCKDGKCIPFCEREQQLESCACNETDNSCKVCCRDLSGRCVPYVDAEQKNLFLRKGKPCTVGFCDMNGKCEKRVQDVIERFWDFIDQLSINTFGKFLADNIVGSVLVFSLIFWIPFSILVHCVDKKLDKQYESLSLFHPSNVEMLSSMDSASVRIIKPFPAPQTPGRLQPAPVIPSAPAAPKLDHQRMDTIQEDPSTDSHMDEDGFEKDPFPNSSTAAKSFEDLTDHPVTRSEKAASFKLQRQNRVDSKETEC

## CCCCn1nnnc1C(CCc1ccccc1)N1CCC(n2c(O)nc3ccccc32)CC1 (stereo not given)
[1]
  AC50: 19 µM (active)
[2]
  AC50: > 52 µM (inactive)
[3]
  AC50: 20.1 µM (active)
[4]
  AC50: 7.55 µM (active)
[5]
  AC50: 19.8 µM (active)

## CCCCc1c(-c2cccc(OC)c2)ncn1CCc1ccccc1OC
[1]
  AC50: 19.2 µM (active)
[2]
  AC50: 15.1 µM (active)
[3]
  AC50: 16.3 µM (active)
[4]
  AC50: 12.9 µM (active)
[5]
  AC50: 29 µM (active)

## COc1ccc(S(=O)(=O)N(C)C[C@@H]2OCCCC[C@H](C)Oc3ccc(NS(=O)(=O)c4ccc(Cl)cc4)cc3C(=O)N([C@H](C)CO)C[C@@H]2C)cc1
[6]
  AC50: 4.8 µM (active)
[7]
  AC50: 26.9 µM (active)
[8]
  AC50: 58.4 µM (active)

## C(=C\c1ccc([C@H]2[C@@H]3CN(Cc4ccc5c(c4)OCO5)C[C@H]2N3)cc1)/c1ccccc1
[6]
  AC50: 20.2 µM (active)
[9]
  AC50: 32.4 µM (active)
[10]
  AC50: 12 µM (active)
[7]
  AC50: 17.6 µM (active)
[11]
  AC50: 18.8 µM (active)
[8]
  AC50: 31.7 µM (active)
[12]
  AC50: 35.1 µM (active)
[13]
  AC50: 2.83 µM (active)
[14]
  AC50: 8.83 µM (active)

## Cc1cccc(S(=O)(=O)N2CCCCN3[C@H](CO)[C@H](c4ccc(C#CC(C)C)cc4)[C@H]3C2)c1
[6]
  AC50: 9.99 µM (active)
[9]
  AC50: 36.9 µM (active)
[7]
  AC50: 9.65 µM (active)
[11]
  AC50: 39.5 µM (active)
[12]
  AC50: 28.4 µM (active)

## COc1ccc(C(=O)NC2=C(c3ccc(OC(F)(F)F)cc3)C(=O)c3ccccc3C2=O)cc1
[15]
  AC50: 41 µM (active)
[16]
  AC50: 23.4 µM (active)

## CC(=O)N1C[C@@H](c2c[nH]c3ccccc23)C=C[C@H]1C(=O)NS(=O)(=O)c1ccc(C)cc1
[17]
  IC50: > 4.54 µM (active)
[18]
  IC50: > 122 µM (inactive)

## CCOc1ccc(/C=N/NC(=O)Cc2csc(Nc3cccc(C(F)(F)F)c3)n2)c(OCC)c1
[19]
  IC50: > 69.5 µM (inactive)
[20]
  IC50: > 69.5 µM (inactive)

## O=C(NC1=C(c2ccccc2)C(=O)c2ccccc2C1=O)c1ccccc1
[15]
  AC50: 47.5 µM (active)
[16]
  AC50: 18.3 µM (active)
